Reference: patent EP3884948A1, “CATHEPSIN INHIBITORS AND USES THEREOF” (Ecole Polytechnique Fédérale de Lausanne (EPFL), priority 2020, dated 2021)

What was measured:
[1] = tested on: CTSS-His-WT and CTSS-His-Y132D; assay: Mass spectrometry of peptide cleavage by purified CTSS; type: biochemical, human; settings: after 15 minutes of incubation with purified CTSS-His-WT and CTSS-His-Y132D
Protocol: (§1) For mass spectrometry experiments, CTSS-His WT and Y132D were activated by incubation at 10 µg/mL in Assay buffer (50 mM NaOAc, 5 mM DTT, 250 mM NaCl, pH 4.5) at 37°C for 90 minutes. 2.5 µg of activated CTSS-His WT and Y132D were then co-incubated with 5 ug of peptide in Assay buffer (final volume: 300 µl) at 37°C for 15 or 30 minutes. The reaction was stopped by addition of 50 µM E64 (Selleckchem, cat #S7379) following the co-incubation. Control reactions were prepared by incubating 5 µg of peptide in 300 µl of Assay buffer at 37°C for 15 or 30 minutes. Control and digested peptides were acidified, desalted on C18 StageTips (Rappsilber et al., 2007) and dried by vacuum centrifugation. Samples were resuspended in LC-MS solvent A (2% Acetonitrile, 0.1% TFA) and equivalent sample amounts (3 to 10 ng) injections were performed. Nano-flow separations were achieved on a Dionex Ultimate 3000 RSLC nano UPLC system (Thermo Fischer Scientific) on-line connected with a Q-Exactive Mass-Spectrometer (Thermo Fischer Scientific). Samples were first trapped on a capillary C18 pre-column (Acclaim PepMap™ 100, 75 µm x 2cm) and then separated on a C18 home-made capillary column (ReproSil-Pur C18 AQ 1.9 µm; 50 cm x 75 µm ID) at 250 nl/min over a biphasic 60 min gradient ranging from 99% of solvent A (2% Acetonitrile and 0.1% Formic acid) to 90% of solvent B (90% Acetonitrile and 0.1% Formic acid). The mass spectrometer was operated in Data Dependent acquisition mode using a scan range of 200 to 1500 m/z. MS resolution was set to 70K and MS2 resolution to 17,5K. An isolation window of 2 m/z was used when selecting ions to fragment by HCD and the Normalized Collision Energy (NCE) was set to 27. Data were inspected and dedicated traces extracted with Xcalibur Qual Browser software (Thermo Fischer Scientific). The peptides used were the following: CD74 ([…]) (SEQ ID NO: 16), HSPA1/8 ([…]) (SEQ ID NO: 17), OVA ([…]) (SEQ ID NO: 18), HA ([…]) (SEQ ID NO: 19).

[2] = target: T1, CTSS-His-WT and CTSS-His-Y132D (Homo sapiens, UniProt P25774); assay: as above; type: biochemical; settings: incubated with purified CTSS-His-WT for 30 minutes
T1 construct: made in house; host or cells: HEK293
Protocol: as §1

Sequence | peptides cleaved [1] | cleavage by CTSS [2]
QLENLRMKLPKPPKPVSKMR [SEQ ID NO: 16] | completely cleaved | –
IKVYLPRMKMEEKYNLTSVL [SEQ ID NO: 18] | – | can cleave
NVKNLYEKVKSQLKNNAKEI [SEQ ID NO: 19] | – | can cleave
EEIERMVQEAEKYKAEDEVQ [SEQ ID NO: 17] | 35-40% | –
